Laboratory results: patent EP2573105B1, “p16INK4a derived peptides for prophylaxis and therapy of HPV-associated tumors and other p16INK4a expressing tumors” (Ruprecht-Karls-Universität Heidelberg, priority 2011, dated 2013)

System: Peripheral blood mononuclear cells (PBMCs)
Assay: BrdU proliferation assay of PBMCs incubated with p16INK4a peptides
Type: cell-based, human
Details: first reacting patient; PBMCs from women with CIN2/3
Method: Peripheral blood mononuclear cells (PBMCs) from 13 women with p16^INK4a-expressing high grade cervical dysplasia (CIN2/3) were incubated with p16^INK4a peptides (Table 1) to determine the proliferative capacity of the immune cells by applying a BrdU assay as a global measure for lymphoproliferative potential after challenge with the p16^INK4a peptides. The BrdU-assay is a colorimetric immunoassay applied for the quantification of cell proliferation based on the measurement of the thymidine analogue 5-bromo-2'-deoxyuridine incorporation during DNA synthesis. PBMCs in IMDM medium supplemented with 10% human serum were seeded in a 96-well-microtiter-plate (flat bottom) at a density of 150.000 cells/50µl/well. Cells in each 4 replicate wells were incubated in the presence of the seven p16INK4a peptides (Table 1), tetanus toxoid (20 ng/ml, Calbiochem, La Jolla, CA) and mitogen PHA-L (5 µg/ml, Roche, Mannheim, Germany) as positive controls and no antigen as negative control for 6 days at 37°C, 5% CO2. […] The enzyme reaction was stopped by adding 25 µl/well 1N H2SO4 and optical density (OD) was measured at 450 nm (reference wavelength 620 nm). […]

In the case of “GHRDVARYLRAAAGGTRGSNHARIDAAEGPSDIPD [p16INK4a_123-156]”, the “response (proliferation, BrdU assay)” value is reported as “showed response”.
